Measured values taken from patent US12569170B2, “Paramagnetic sodium NMR macrocyclic-based biosensors, and associated methods” (Yale University, priority 2021, dated 2026).

Test system: rat brain bearing U251, RG2 or U87 tumors
Test: In vivo ^23Na-MRSI peak separation in tumor-bearing rat brain
Description: Before TmDOTP^5− delivery, there was a single ^23Na peak at 0 ppm corresponding to Na^+T, observed ubiquitously both inside and outside the tumor. Upon TmDOTP^5− delivery, compartmental ^23Na peak separation was achieved. Within the tumor, the compromised BBB permitted greater TmDOTP^5− extravasation and accumulation in the interstitial space, explicitly yielding three separate ^23Na peaks emerging from the original single ^23Na resonance. […] In the tumor, the most-shifted peak was Na^+b because the blood compartment had the largest TmDOTP^5−, which was corroborated by removing blood samples from the animal and observing the same chemical shift in vitro (FIG. 2D). In the tumor, the intermediate peak in the middle corresponded to the interstitial Na^+e resonance (FIG. 2B). The splitting was also evident outside of the tumor (i.e., in healthy tissue) where TmDOTP^5− extravasated to a much lesser extent compared to tumor tissue (FIG. 2C). The Na^+b peak was still most-shifted, whereas the Na^+i and Na^+e peaks were less discernible. When there was significant overlap between adjacent peaks, instead of peak integrals the peak amplitudes were used to discriminate signals. The shifted bulk Na^+e peak in healthy tissue confirmed that whatever degree of TmDOTP^5− extravasation occurred was sufficient to affect the interstitial ^23Na signals, albeit less pronounced than tumoral Na^+e. The unshifted Na^+i resonance was still at 0 ppm, but partially eclipsed by the bulk Na^+e peak. These same patterns inside/outside the tumor were observed throughout the brain.
The in vivo protocol was approved by the Institutional Animal Care & Use Committee of Yale University, and all procedures were performed in accordance with these enforced guidelines and regulations, and in compliance with the ARRIVE guidelines. Rats (athymic/nude and Fischer 344) were purchased through Yale University vendors. U251, U87 and RG2 GBM cell lines were purchased from American Type Culture Collections (Manassas, VA, USA). The U251, U87, and RG2 cells were cultured and grown in a 5% CO2 incubator at 37° C. in either low-glucose (U251 cells) or high-glucose (U87 and RG2 cells) Dulbecco's Modified Eagle's Medium (DMEM) (Thermo Fisher Scientific, Waltham, MA, USA) with 10% fetal bovine serum (FBS) and 1% penicillin-streptomycin. Cells for tumor inoculation were harvested upon reaching at least 80% confluence and were prepared in FBS-free DMEM. Athymic/nude rats were injected intracranially with 2-5×10^6 tumor cells either from the U251 (n=6) or the U87 (n=8) cell line (5-μL aliquot) while placed in a stereotactic holder on a heating pad. Fischer 344 rats were injected with 1.25×10^3 RG2 cells (n=8). During the procedure, animals were anesthetized via isoflurane (Isothesia) inhalation (3-4%), purchased from Covetrus (Portland, ME, USA). Dissection was performed to the cranium, and a hole was drilled into the skull to allow for stereotactic needle insertion. Injections were performed using a 10-μL Hamilton syringe with a 26G needle into the right striatum for majority of the experiments, 3 mm to the right of the bregma and 3 mm below the dura. The cells were injected steadily at 1 μL/min over 5 min and the needle was left in place for an additional 5 min post-injection. The syringe was then gradually removed to preclude any backflow of cells. The hole in the skull was sealed with bone wax, and the incision site was sutured after removal of the syringe. Animals were given bupivacaine (2 mg/kg at incision site) and carprofen (5 mg/kg, subcutaneously) during the tumor inoculation to relieve pain. Carprofen was subsequently given once per day for two days post-inoculation.
Rats were weighed daily and kept on a standard diet of rat chow and water. Tumor growth was monitored every 3-4 days using ^1H-MRI under isoflurane anesthesia. When the tumor had reached a minimum mean diameter of 3 mm at 20-24 days post-injection, each animal was imaged using ^1H-MRI and ^23Na-MRSI. […]

[1] = intravenous ~1 μmol/g, all tumors
[2] = rats bearing RG2 and U87 tumors, tumor voxels

Q: How did the “observed ^23Na linewidths in vivo” value (after TmDOTP^5−) turn out when `O=P([O-])([O-])CN1CCN(CP(=O)([O-])[O-])CCN(CP(=O)([O-])[O-])CCN(CP(=O)([O-])[O-])CC1.[Na+].[Na+].[Na+].[Na+].[Na+].[Tm+3]` [TmDOTP^5−, sodium thulium (III) 1,4,7,10-tetraazacyclododecane-1,4,7,10-tetrakis(methylenephosphonate)] was run?
A: ~0.4 ppm

Q: What about the “^23Na blood peak shift, in vitro analysis of blood samples” value (blood samples from the U251 tumor-bearing rat) of the same molecule?
A: around 2 ppm

Q: And the “TmDOTP^5− concentration in the tumor vasculature” value (from range of shifts observed and shiftability 2.77 ppm/mM)?
A: no more than 0.7 mM

Q: What about the “separation of blood and interstitial ^23Na peaks” value (intravenous ~1 μmol/g) of the same molecule?
A: ~1.5 ppm

Q: And the “^23Na shift in blood” value [1]?
A: ~2 ppm

Q: What about the “^23Na shifts in tumor tissue” value [1] of the same molecule?
A: 0.5-1 ppm

Q: What about the “^23Na shift of blood sodium (Na^+b) peak” value (rat bearing U251 tumor, after TmDOTP^5− delivery) of the same molecule?
A: around 2 ppm

Q: And the “^23Na shift of intracellular sodium (Na^+i) peak” value (rat bearing U251 tumor, ~1 μmol/g BW)?
A: 0 ppm

Q: And the “Na^+e shift in the tumor” value (rats bearing RG2 and U87 tumors)?
A: 0.5-1 ppm

Q: And the “Na^+b shift” value [2]?
A: around 2 ppm

Q: What about the “Na^+i shift” value [2] of the same molecule?
A: 0 ppm
